Experimental data taken from PubChem BioAssay (NCI).
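Values below derive from 48-hour exposures of cells grown in 96-well plates, with endpoints linearly interpolated between the two concentrations bracketing the appropriate inhibition level. At the TGI there is no net growth.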

Columns and labels:
Assay in all cases: growth of human tumour cells (NCI), 48 h
[1] = system: A549 NSCLC
[2] = system: ACHN renal
[3] = system: CCRF-CEM leukemia
[4] = system: HCT-15 colon
[5] = system: HL-60(TB) leukemia
[6] = system: HT29 colon
[7] = system: K-562 leukemia
[8] = system: MDA-MB-231 breast
[9] = system: MOLT-4 leukemia
[10] = system: NCI-H23 lung
[11] = system: NCI-H522 lung
[12] = system: OVCAR-5 ovarian
[13] = system: RPMI-8226 leukemia
[14] = system: SK-MEL-2 melanoma
[15] = system: SK-OV-3 ovarian
[16] = system: SR leukemia
[17] = system: SW-620 colon
[18] = system: U251 CNS
[19] = system: DU-145 prostate
[20] = system: RXF 393 renal

Row | Structure (SMILES) | TGI [1] [µM] | TGI [2] [µM] | TGI [3] [µM] | TGI [4] [µM] | TGI [5] [µM] | TGI [6] [µM] | TGI [7] [µM] | TGI [8] [µM] | TGI [9] [µM] | TGI [10] [µM] | TGI [11] [µM] | TGI [12] [µM] | TGI [13] [µM] | TGI [14] [µM] | TGI [15] [µM] | TGI [16] [µM] | TGI [17] [µM] | TGI [18] [µM] | TGI [19] [µM] | TGI [20] [µM]
1 | COc1ccccc1NCc1cccc2c(=O)c3ccc(Cl)cc3oc12 | > 100 | > 100 | > 100 | > 100 | 64 | > 100 | > 100 | > 100 | > 100 | > 100 | > 100 | > 100 | > 100 | > 100 | > 100 | > 100 | > 100 | > 100 |  | 
2 | CN1C(=O)CC2CCC(=O)N2c2cccnc21 (stereo unspecified) | > 100 | > 100 | > 100 | > 100 | > 100 | > 100 | > 100 | > 100 |  | > 100 | > 100 |  | > 100 | > 100 |  | > 100 | > 100 | > 100 | > 100 | 
3 | COc1ccc(C2C3CCCC(C3=O)C(c3ccc(OC)cc3)N2N=O)cc1 (stereo unspecified) | > 88.2 |  | > 70.7 | > 100 | > 64 | 51.2 | > 66 |  | > 61.6 | 44.5 | 34.6 | > 100 | 47.8 | 45.1 | > 87.6 |  | > 100 | > 100 |  | 41.1
4 | CCOC(=O)C(C)c1nc2ccc(C(F)(F)F)cc2[nH]c1=O (stereo unspecified) | > 100 | > 100 | > 100 | > 100 | > 100 | > 100 | > 100 | > 100 | > 100 | > 100 |  | > 100 | > 100 | > 100 | > 100 |  | > 100 | > 100 | > 100 | > 100
5 | CC1C2=C(CCCC2=O)N(c2ccc(Cl)cc2)C2=C1C(=O)CCC2 | > 100 | > 100 | > 100 | > 100 | > 100 | > 100 | > 100 |  | > 100 | > 100 |  | > 100 | > 100 |  | > 100 | > 100 | > 100 | > 100 |  | 78.4
6 | COC(=O)/C=C(\S/C=C(/c1ccccc1)N1CCn2c(C(=O)c3ccccc3)c(C(=O)OC)c(C(=O)OC)c21)C(=O)OC | > 10 | > 10 | 4.2 | 6.7 | 2.6 | > 10 | > 10 | 5.27 | 5.64 | > 10 | 1.73 | > 10 | 7.49 | > 10 | > 10 | > 10 | 2.03 | > 10 |  | 4.67
7 | CCCN1C(=O)/C(=C\c2ccc(OC)c(OC)c2)SC1=Nc1ccccc1 | > 100 | > 100 | > 100 | > 100 | > 100 | > 100 | > 100 | > 100 | > 100 | > 100 | > 100 | > 100 | > 100 | > 100 | > 100 | > 100 | > 100 | > 100 |  | 
8 | CC1(C)CC(=O)c2c(nc3c(ccc4ccccc43)c2-c2ccc(NC(=O)CCCCC(=O)Nc3ccc(-c4c5c(nc6c4ccc4ccccc46)CC(C)(C)CC5=O)cc3)cc2)C1 | > 100 | 69.1 | 78.3 | 50.9 | 77.6 | 62.3 | > 100 | 64.6 | 55.9 |  | > 100 | > 100 | 71.4 | 92.6 | > 100 |  | > 100 | > 100 | > 100 | > 100
9 | O=S(=O)(O)c1ccc2c(N=Nc3ccc(Cl)cc3)c(O)ccc2c1 | > 100 | > 100 | > 100 | > 100 |  | > 100 | > 100 | > 100 | > 100 | > 100 | > 100 | > 100 | > 100 | > 100 | > 100 |  | > 100 | > 100 | > 100 | > 100
10 | COc1ccc2nc3n(c2c1)C(=O)c1ccccc1-3 | > 100 | > 100 | > 100 | > 100 | > 100 | > 100 | > 100 |  | > 100 | > 100 | > 100 | > 100 | > 100 | > 100 | > 100 | > 100 | > 100 | > 100 | > 100 | > 100
11 | C(=Nc1ccc(-c2nc3ccccc3[nH]2)cc1)c1ccco1 | > 100 | > 100 | > 100 | > 100 | > 100 | > 100 | > 100 |  | > 100 | > 100 | > 100 | > 100 | > 100 | > 100 |  | > 100 | > 100 |  | > 100 | > 100
12 | CC(C)(C)OC(=O)Cn1ncn(NC(=O)Cc2ccccc2)c1=O | > 10 | > 10 | > 10 | > 10 |  | > 10 | > 10 | > 10 | > 10 | > 10 | > 10 | > 10 |  |  | > 10 | > 10 | > 10 | > 10 | > 10 | 
13 | C=CCOc1ccccc1C1(O)c2ccccc2C2=NCCCN21 (stereo unspecified) | > 100 | 83.9 | > 100 | > 100 | 96.8 | 36.2 | > 100 | > 100 | > 100 | > 100 |  | > 100 | > 100 |  | > 100 | > 100 | > 100 | > 100 | > 100 | 
